# Test results taken from US20220324835A1 (Nurix Therapeutics, Inc., priority 2018, published 2022).
# Tests used:
# Format in all cases: cell-based
# [1] = tested on: primary human total T-cells; assay: T-cell activation assessed by CD69 expression
# Summary of the method: (§1)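 Readouts are fold change versus compound-free cells under the same stimulation: plate-bound anti-CD3 (OKT3, 10 μg/mL coating) alone or with soluble anti-CD28 at 5 μg/mL, for 48 h. Isolated human total T cells (1×10^5/well) got inhibitor 1 h beforehand at concentrations such as 10, 1.11 or 0.123 μM. Measured: GM-CSF/IFNγ/TNFα secretion, surface CD69, proliferation by dye dilution.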
# [2] = tested on: primary human total T-cells; assay: T-cell activation assessed by cell proliferation (Cell Trace Violet)
# Summary of the method: as §1
# [3] = tested on: primary human total T-cells; assay: T-cell activation assessed by cytokine secretion (GM-CSF, IFNγ, TNFα)
# Summary of the method: as §1
# [4] = CD3/CD28 stimulation, CD4 T-cells, read-out: % CD69+ (CD4)
# [5] = CD3/CD28 stimulation, CD8 T-cells, read-out: % CD69+ (CD8)
# [6] = CD3 alone stimulation, CD4 T-cells, read-out: % CD69+ (CD4)
# [7] = CD3 alone stimulation, CD8 T-cells, read-out: % CD69+ (CD8)
# [8] = CD3/CD28 stimulation, CD4 T-cells, read-out: % CP (cell proliferation) (CD4)
# [9] = CD3/CD28 stimulation, CD8 T-cells, read-out: % CP (cell proliferation) (CD8)
# [10] = CD3 alone stimulation, CD8 T-cells, read-out: % CP (cell proliferation) (CD8)
# [11] = CD3/CD28 stimulation, read-out: GM-CSF secretion
# [12] = CD3/CD28 stimulation, read-out: IFNγ secretion
# [13] = CD3/CD28 stimulation, read-out: TNFα secretion
# [14] = CD3 alone stimulation, read-out: GM-CSF secretion
# [15] = CD3 alone stimulation, read-out: IFNγ secretion
# [16] = CD3 alone stimulation, read-out: TNFα secretion
SMILES,"fold induction at 1.11 µM [1, 4]","fold induction at 10 µM [1, 4]","fold induction at 1.11 µM [1, 5]","fold induction at 10 µM [1, 5]","fold induction at 1.11 µM [1, 6]","fold induction at 10 µM [1, 6]","fold induction at 1.11 µM [1, 7]","fold induction at 10 µM [1, 7]","fold induction at 1.11 µM [2, 8]","fold induction at 10 µM [2, 8]","fold induction at 1.11 µM [2, 9]","fold induction at 10 µM [2, 9]","fold induction at 1.11 µM [2, 10]","fold induction at 10 µM [2, 10]","fold induction at 1.11 µM [3, 11]","fold induction at 1.11 µM [3, 12]","fold induction at 1.11 µM [3, 13]","fold induction at 10 µM [3, 11]","fold induction at 10 µM [3, 12]","fold induction at 10 µM [3, 13]",other results
"C[C@H](Cc1nncn1C)c1cccc(NC(=O)c2cc3cc(N4CCNCC4)ccc3cn2)c1 [Compound 472, N-{3-[(2R)-1-(4-methyl-4H-1,2,4-triazol-3-yl)propan-2-yl]phenyl}-6-(piperazin-1-yl)isoquinoline-3-carboxamide]",1.2 to 1.4,1.4 to 1.6,≤ 1.2,1.2 to 1.4,1.4 to 1.6,1.4 to 1.6,≤ 1.2,1.2 to 1.4,3.01 to 4,> 4,2.01 to 3,2.01 to 3,2.01 to 3,< 2,1.51 to 2,< 2,1.51 to 2,2.01 to 4,< 2,1.51 to 2,"fold induction at 1.11 µM [3, 14]: 1.51 to 2; fold induction at 1.11 µM [3, 15]: < 2; fold induction at 1.11 µM [3, 16]: ≤ 1.5; fold induction at 10 µM [3, 14]: 1.51 to 2; fold induction at 10 µM [3, 15]: < 2; fold induction at 10 µM [3, 16]: ≤ 1.5"
"COC1CN(Cc2cc3c(c(C(F)(F)F)c2)CN(c2cccc([C@@](C)(F)C(F)(F)c4nncn4C)c2)C3=O)C1 [Compound 452, (R)-6-((3-methoxyazetidin-1-yl)methyl)-2-(3-(1,1,2-trifluoro-1-(4-methyl-4H-1,2,4-triazol-3-yl)propan-2-yl)phenyl)-4-(trifluoromethyl)isoindolin-1-one]",1.2 to 1.4,1.4 to 1.6,1.2 to 1.4,1.2 to 1.4,1.4 to 1.6,> 1.6,1.2 to 1.4,1.4 to 1.6,> 4,> 4,3.01 to 4,> 4,3.01 to 4,> 4,2.01 to 4,< 2,1.51 to 2,2.01 to 4,2.01 to 3,2.01 to 4,"fold induction at 1.11 µM [3, 14]: 1.51 to 2; fold induction at 1.11 µM [3, 15]: 3.01 to 4; fold induction at 1.11 µM [3, 16]: ≤ 1.5; fold induction at 10 µM [3, 14]: 2.01 to 4; fold induction at 10 µM [3, 15]: 3.01 to 4; fold induction at 10 µM [3, 16]: 1.51 to 2"
